Marks after values point to notes of the source that are not given here.
Legend:
[1] = Liver microsome metabolism stability, human liver microsome; format: in vitro ADME; conditions: 0.5 mg protein/mL, test sample 1 μM, β-NADPH
Method: (§1) Test samples: the homemade compounds 1, 2, 4 and 5 of the present invention (for their chemical names and preparation methods, see the preparation example for each compound).
(§2) a mixed liver microsomes of SD rat and human both purchased from XenoTech, with batch Nos.: 1410271 (SD rat) and 1410013 (human) respectively, wherein the microsomal protein concentrations both were 20 mg mL^−1;
(§3) experimental promoter β-NADPH purchased from Roche (batch No.: 524F0231); and a phosphate buffer solution (pH 7.4) made in the lab.
(§4) An appropriate amount of the test sample powder was weighed accurately, and dissolved in an appropriate amount of dimethyl sulfoxide (DMSO) to a concentration of 1 mM; and the solution was then diluted by 20 times with methanol to yield a 50 μM working solution.
(§5) (1) According to the proportions in table 3 “Composition of the incubation system for liver microsome metabolism stability experiment” above, for each compound, 6 mL of PBS (100 mM), 0.6 mL of MgCl2 solution (20 mM) and 3.66 mL of H2O were made into a mixed solution 1 for the incubation system (not containing the microsomes, the test sample and β-NADPH).
(§6) (2) Liver microsomes (20 mg protein/mL) were taken from a refrigerator (−80° C.), and were placed on a thermostatic water bath oscillator (37° C.) and pre-incubated for 3 mins.
(§7) (3) For each compound, 1.88 mL of the mixed solution 1 for the incubation system was added with 55 μL of microsomes to obtain a mixed solution 2 for the incubation system (not containing the test sample and β-NADPH).
(§8) (4) Sample group (containing the microsomes and D-NADPH): 616 μL of mixed solution 2 for the incubation system was added with 14 μL of the test sample working solution (with a concentration of 50 μM), and with 70 μL of R-NADPH working solution (10 mM). The resulted solution was well mixed, and the resulted solution was then duplicated. The time points of sampling were at 0 min, 5th min, 10th min, 20th min, 30th min and 60th min.
(§9) (5) Control group (containing the microsomes, and water instead of D-NADPH): 264 μL of mixed solution 2 for the incubation system was added with 6 μL of the test sample working solution (50 μM), and with 30 μL of water. The resulted solution was well mixed, and the resulted solution was then duplicated. The time points of sampling were at 0 min and 60th min.
(§10) (6) 50 μL of sample was taken from an incubating sample tube at each predetermined time point, added to a terminating sample tube (containing 300 μL of cold terminator), and vortexed; and the reaction was terminated.
(§11) (7) after 10 mins of vortexing, the solution was centrifuged for 5 mins (12,000 rpm).
(§12) (8) 100 μL of supernatant was taken and added with 100 μL of water, and the mixture solution was thoroughly vortexed; and the solution was then analyzed by LC-MS/MS.
(§13) Percentages of residual contents were calculated according to the following formula.

[2] = Liver microsome metabolism stability, rat liver microsome; format: in vitro ADME, SD rat; conditions: 0.5 mg protein/mL, test sample 1 μM, β-NADPH
Method: as §1, §2, §3, §4, §5, §6, §7, §8, §9, §10, §11, §12, §13

[3] = test system: high fat-induced NAFLD/NASH mice; assay: High fat-induced NAFLD/NASH mice (Experimental Example 5); format: in vivo, C57BL/6J male mice
Excerpt: Build of NAFLD/NASH (non-alcoholic fatty liver disease/nonalcoholic steatohepatitis) mouse models: six-week-old C57BL/6J male mice were fed with high-fat feed, and were weighed each week to record the body weights of the mice; and after high-fat feeding for 8 weeks, the mice were weighed to determine whether the modeling is successful.
According to the body weight values (40 g was generally considered as a screening critical point), the successfully-modeled mice were divided into a blank control group, a model control group and the compound 2-1 (1 mg/kg) group, wherein the average body weights of all groups were consistent, without any significant difference. The mice were administered once every day (QD) (8 # intragastric syringe) for 3 weeks.
24 hrs after the last administration, blood was sampled from the inner canthus; the sampled blood stood at room temperature for 1 to 2 hrs, and was centrifuged at 4,000 rpm for 15 mins, and the serum was collected; the mice were euthanized thereafter, and a large liver lobe and a small liver lobe were cut off and put into 10% neutral formalin, and the remainings were stored in a refrigerator at −80° C. For the detailed administration method, administration dosage and administration route, see the table below.
Route, dosage and regimen of administration in experiment for influence of compounds of the present invention on high fat-induced NAFLD/NASH mice
2.1 Experimental Observation Index • 1) Body weight: Weighing was performed once every week from the beginning of modeling. Weighing was performed once every week after administration. • 2) Analysis of morphological and pathological changes of livers: Liver tissues were separated, collected and photographed. The livers were weighed, and ratios of liver weight/body weight were calculated. The tissue was sliced and stained by H&E (NAFLD score, NAS). • 3) Assay of biochemical indexes of livers: TG in the livers was extracted according to the manual of a tissue cell triglyceride assay kit (purchased from Applygen Technologies Inc. E1013), and assayed. • 4) Assay of biochemical indexes of serums: LDL in serums was assayed with a full-automatic biochemical analyzer (Hitachi 7180, model: X594).
Data were represented by mean±S.E.M., and one-way analysis of variance (ANOVA) followed LSD or independent-sample T test were performed on the statistical data with statistical software SPSS 16.0. Statistical differences were tested, and p<0.05 was defined as a significant difference.

O=C(O)c1ccc2nc(N3C[C@@H]4C[C@H]3C[C@H]4OCc3c(-c4c(Cl)cccc4Cl)noc3C3CC3)sc2c1 [Compound 2-1, 2-((1S, 4S, 5R)-5-((5-cyclopropyl-3-(2,6-dichlorophenyl)isoxazol-4-yl)methoxy)-2-azabicyclo[2.2.1]heptan-2-yl)benzo[d]thiazole-6-carboxylic acid]
Residual content (%) after 60 minutes of incubation [1]: 69%
Residual content (%) after 60 minutes of incubation [2]: 77%
Liver Weight/Body Weight ([3]; 1 mg/kg p.o. QD for 3 weeks, increased or decreased ratio of the experimental group to the model group): −9%*
NAFLD Activity Score ([3]; H&E liver slices, 1 mg/kg p.o. QD for 3 weeks, model group 3, p<0.001): 1
effect on the NAFLD symptom of the mice ([3]; at the administration dosage (1 mg/kg)): good improving effect
TG ([3]; liver TG, 1 mg/kg p.o. QD for 3 weeks, increased or decreased ratio of the experimental group to the model group): −53%*
LDL ([3]; serum, 1 mg/kg p.o. QD for 3 weeks, model group 0.31, p<0.01): 0.21
